According to WO2023227069A1, “Polidocanol with single molecular weight, and use thereof” (Jenkem Technology Co Ltd, priority 2022, dated 2023):
Where two headings read alike, the source gives them in different places.

Legend:
[1] = test system: HUVEC (human umbilical vein endothelial cells); test: Cytotoxicity on HUVEC (CCK8), IC50 of polidocanols with different chain lengths; type: cell-based; conditions: in words, values of Table 8 not in this copy
[2] = Foaming efficiency of 1% solutions (foam drainage, half-life, coalescence); type: physicochemical; conditions: 1% solution, 20 pumps
[3] = test system: rabbit ear marginal vein; test: Venous sclerosis after single injection of foam preparation into rabbit marginal ear vein (effective rate, appearance); type: in vivo, New Zealand rabbit; conditions: for Effective rate of venous sclerosis compared with positive control low-dose group: in words
[4] = test system: marginal ear vein of rabbits; test: Venous pathological sections 14 days after injection into rabbit marginal ear vein; type: in vivo, New Zealand rabbit; conditions: for Pathological score of rabbit ear blood vessels compared with positive low-dose control group: in words
[5] = 14 days after intravenous injection into rabbit ear margin

Row | SMILES | IC50 value compared with polidocanol group [1] | Effective rate of venous sclerosis [3, 5] | Effective rate of venous sclerosis compared with positive control low-dose group ([3]; 14 days) | Effective rate of venous sclerosis compared with positive control low-dose group ([3]; 21 days) | Pathological changes in blood vessels, high magnification [4] | Pathological changes in blood vessels, low magnification [4] | Pathological score of rabbit ear blood vessels compared with positive low-dose control group [4] | also measured
1 | CCCCCCCCCCCCOCCOCCOCCOCCO [DD-PEG4-OH] | greater than that of the polidocanol group | – | – | – | – | – | – | Foam half-life time (FHT), in words ([2]; even if a small amount of foam is formed): disappear in a very short time; Foam formation ([2]; in words, listed as P4): it is difficult for the P4 sample to form foam
2 | CCCCCCCCCCCCOCCOCCOCCOCCOCCOCCOCCOCCO [DD-PEG8-OH] | smaller than those of the polidocanol group | above 83.33% | not lower than the positive control low-dose group | higher than the positive control low-dose group | a large number of fibroblast proliferations can be seen in the lumen, and red blood cells are scattered among local fibroblasts; new capillaries and macrophages that phagocytose hemosiderin can be seen locally | The tissue structure of each layer of the wall is unclear and the blood vessel lumen is occluded | higher than those of the positive low-dose control group | Appearance of veins ([3]; 14 days after administration): some Blood vessels are blocked; Appearance of veins ([3]; 21 days after administration): some blood vessels in the rabbit ear Completely blocked
3 | CCCCCCCCCCCCOCCOCCOCCOCCOCCOCCOCCOCCOCCO [DD-PEG9-OH] | smaller than those of the polidocanol group | – | – | – | – | – | – | Appearance of veins ([3]; 14 days after administration, low-dose group): some Blood vessels are blocked; Effective rate of venous sclerosis ([3]; 14 days, P9 high-dose group): above 83.33%; Effective rate of venous sclerosis compared with positive control low-dose group ([3]; 14 days, P9 high-dose group): not lower than the positive control low-dose group; Effective rate of venous sclerosis ([3]; 14 days, P9 low-dose group): above 83.33%; Effective rate of venous sclerosis compared with positive control low-dose group ([3]; 14 days, P9 low-dose group): not lower than the positive control low-dose group; Appearance of veins ([3]; 21 days after administration, low-dose group): some blood vessels in the rabbit ear Completely blocked; Effective rate of venous sclerosis compared with positive control low-dose group ([3]; 21 days, P9 high-dose group): higher than the positive control low-dose group; Effective rate of venous sclerosis compared with positive control low-dose group ([3]; 21 days, P9 low-dose group): higher than the positive control low-dose group; Pathological score of rabbit ear blood vessels compared with positive low-dose control group ([4]; P9 high-dose group): higher than those of the positive low-dose control group; Pathological score of rabbit ear blood vessels compared with positive low-dose control group ([4]; P9 low-dose group): higher than those of the positive low-dose control group; Pathological changes in blood vessels, high magnification ([4]; high-dose group): a large number of fibroblast proliferations can be seen in the lumen, and red blood cells are scattered among local fibroblasts; new capillaries and macrophages that phagocytose hemosiderin can be seen locally; Pathological changes in blood vessels, low magnification ([4]; high-dose group): The tissue structure of each layer of the wall is unclear and the blood vessel lumen is occluded; Pathological changes in blood vessels, high magnification ([4]; low-dose group): a large number of fibroblast proliferations can be seen in the lumen, and red blood cells are scattered among local fibroblasts; new capillaries and macrophages that phagocytose hemosiderin can be seen locally; Pathological changes in blood vessels, low magnification ([4]; low-dose group): The tissue structure of each layer of the wall is unclear and the blood vessel lumen is occluded
4 | CCCCCCCCCCCCOCCOCCOCCOCCOCCOCCOCCOCCOCCOCCO [DD-PEG10-OH] | smaller than those of the polidocanol group | above 83.33% | not lower than the positive control low-dose group | higher than the positive control low-dose group | a large number of fibroblast proliferations can be seen in the lumen, and red blood cells are scattered among local fibroblasts; new capillaries and macrophages that phagocytose hemosiderin can be seen locally | The tissue structure of each layer of the wall is unclear and the blood vessel lumen is occluded | higher than those of the positive low-dose control group | Foam drainage time (FDT), precipitation time of liquid, in words ([2]; relative to other samples): relatively slow
5 | CCCCCCCCCCCCOCCOCCOCCOCCOCCOCCOCCOCCOCCOCCOCCO [DD-PEG11-OH] | smaller than those of the polidocanol group | above 83.33% | not lower than the positive control low-dose group | higher than the positive control low-dose group | a large number of fibroblast proliferations can be seen in the lumen, and red blood cells are scattered among local fibroblasts; new capillaries and macrophages that phagocytose hemosiderin can be seen locally | The tissue structure of each layer of the wall is unclear and the blood vessel lumen is occluded | higher than those of the positive low-dose control group | –
6 | CCCCCCCCCCCCOCCOCCOCCOCCOCCOCCOCCOCCOCCOCCOCCOCCO [DD-PEG12-OH] | smaller than those of the polidocanol group | – | – | – | – | – | – | –
7 | CCCCCCCCCCCCOCCOCCOCCOCCOCCOCCOCCOCCOCCOCCOCCOCCOCCOCCOCCOCCOCCOCCOCCOCCOCCOCCOCCOCCO [DD-PEG24-OH] | greater than that of the polidocanol group | – | – | – | – | – | – | Foam coalescence time (FCT), time for foam to completely disappear [2]: about 4.25 min
